Experimental data: ChEMBL document CHEMBL6153074, “Discovery of novel dual tubulin and MMPs inhibitors for the treatment of lung cancer and overcoming drug resistance” (Eur J Med Chem, 2025)
pIC50: −log10 of the molar value. The source made the active and inactive calls. The rule behind the calls is not given here.

Key:
NCI-H460 = test: Antiproliferative activity against human NCI-H460 cells by CCK8 assay
MCF7 = test: Antiproliferative activity against human MCF7 cells by CCK8 assay
MDA-MB-231 = test: Antiproliferative activity against human MDA-MB-231 cells by CCK8 assay
A549 [1] = test: cells; conditions: Homo sapiens
Description: Antiproliferative activity against human A549 cells by CCK8 assay

[2] = Antiproliferative activity against human L02 cells by CCK8 assay; format: toxicity, cell-based
[3] = Selectivity index, ratio of IC50 for antiproliferative activity against human L02 cells to IC50 for antiproliferative activity against human A549 cells; format: toxicity, cell-based; conditions: L02 cells and A549 cells, read-out: Ratio IC50
[4] = Antiproliferative activity against human MCF-10A cells by CCK8 assay; format: toxicity, cell-based
[5] = Selectivity index, ratio of IC50 for antiproliferative activity against human MCF-10A cells to IC50 for antiproliferative activity against human MCF7 cells; format: toxicity, cell-based; conditions: MCF-10A cells and MCF7 cells, read-out: Ratio IC50
Tubulin (Homo sapiens) [6] = molecular target: T1, Tubulin (Homo sapiens) (UniProt P68371+Q9H4B7+P0DPH7+P68366+Q13509+Q71U36+P04350+Q3ZCM7+P07437+P68363+Q9BQE3+Q6PEY2+Q13885+Q9BVA1+Q9BUF5); test: Disruption of microtubule network in human A549 cells assessed as cell disorganisation at 5 uM incubated for 24 hrs by immunofluorescence based analysis
Tubulin (Homo sapiens) [7] = molecular target: T1, Tubulin (Homo sapiens); test: Disruption of microtubule network in human A549 cells assessed as contraction towards cell border at 5 uM incubated for 24 hrs by immunofluorescence based analysis
A549 [8] = test: Anti-migration activity in human A549 cells assessed as migration rate at 0.5 uM incubated for 24 hrs by wound healing assay (reference value: 73.94 %); format: functional
A549 [9] = test: Induction of apoptosis in human A549 cells assessed as viable cells at 0.5 uM incubated for 24 hrs by Annexin V-FITC/PI staining based flow cytometry (reference value: 95.82 %); format: functional; conditions: read-out: Activity
A549 [10] = test: Induction of apoptosis in human A549 cells assessed as early apoptotic cells at 0.5 uM incubated for 24 hrs by Annexin V-FITC/PI staining based flow cytometry (reference value: 3.04 %); format: functional
A549 [11] = test: Induction of apoptosis in human A549 cells assessed as late apoptotic cells at 0.5 uM incubated for 24 hrs by Annexin V-FITC/PI staining based flow cytometry (reference value: 1.01 %); format: functional
A549 [12] = test: Induction of apoptosis in human A549 cells assessed as necrotic cells at 0.5 uM incubated for 24 hrs by Annexin V-FITC/PI staining based flow cytometry (reference value: 0.13 %); format: functional
A549 [13] = test: Induction of cell cycle arrest in human A549 cells assessed as accumulation at G1 phase at 0.5 uM incubated for 24 hrs by PI staining based flow cytometry (reference value: 58.67 %); format: functional
A549 [14] = test: Induction of cell cycle arrest in human A549 cells assessed as accumulation at G2 phase at 0.5 uM incubated for 24 hrs by PI staining based flow cytometry (reference value: 3.37 %); format: functional
A549 [15] = test: Induction of cell cycle arrest in human A549 cells assessed as accumulation at S phase at 0.5 uM incubated for 24 hrs by PI staining based flow cytometry (reference value: 37.95 %); format: functional
A549 [16] = test: Induction of mitochondrial membrane potential loss in human A549 cells at 0.5 uM incubated for 24 hrs by JC-1 dye based analysis (reference value: 3.14 %); format: functional
A549 [17] = test: Induction of intracellular ROS accumulation in human A549 cells at 0.5 uM incubated for 24 hrs by DCFH-DA dye based flow cytometry (reference value: 4.96 %); format: functional
A549 [18] = test: Antitumor activity against human A549 cells xenografted in BALB/c mouse at 20 mg/kg, ip for 3 weeks administered on every 2 days relative to control; format: functional; conditions: A549, 504 h, read-out: TGI
[19] = molecular target: 72 kDa type IV collagenase (Homo sapiens, UniProt P08253); test: Inhibition of MMP-2 (unknown origin) using fluorogenic-McaPro-Leu-Gly-Leu-Dpa-Ala-Arg-NH2 as substrate
Stromelysin-1 = Stromelysin-1 (Homo sapiens, UniProt P08254); test: Inhibition of MMP-3 (unknown origin) using fluorogenic-McaPro-Leu-Gly-Leu-Dpa-Ala-Arg-NH2 as substrate
[20] = molecular target: Matrix metalloproteinase-9 (Homo sapiens, UniProt P14780); test: Inhibition of MMP-9 (unknown origin) using fluorogenic-McaPro-Leu-Gly-Leu-Dpa-Ala-Arg-NH2 as substrate
Matrix metalloproteinase-9, sequence (P14780 whole entry): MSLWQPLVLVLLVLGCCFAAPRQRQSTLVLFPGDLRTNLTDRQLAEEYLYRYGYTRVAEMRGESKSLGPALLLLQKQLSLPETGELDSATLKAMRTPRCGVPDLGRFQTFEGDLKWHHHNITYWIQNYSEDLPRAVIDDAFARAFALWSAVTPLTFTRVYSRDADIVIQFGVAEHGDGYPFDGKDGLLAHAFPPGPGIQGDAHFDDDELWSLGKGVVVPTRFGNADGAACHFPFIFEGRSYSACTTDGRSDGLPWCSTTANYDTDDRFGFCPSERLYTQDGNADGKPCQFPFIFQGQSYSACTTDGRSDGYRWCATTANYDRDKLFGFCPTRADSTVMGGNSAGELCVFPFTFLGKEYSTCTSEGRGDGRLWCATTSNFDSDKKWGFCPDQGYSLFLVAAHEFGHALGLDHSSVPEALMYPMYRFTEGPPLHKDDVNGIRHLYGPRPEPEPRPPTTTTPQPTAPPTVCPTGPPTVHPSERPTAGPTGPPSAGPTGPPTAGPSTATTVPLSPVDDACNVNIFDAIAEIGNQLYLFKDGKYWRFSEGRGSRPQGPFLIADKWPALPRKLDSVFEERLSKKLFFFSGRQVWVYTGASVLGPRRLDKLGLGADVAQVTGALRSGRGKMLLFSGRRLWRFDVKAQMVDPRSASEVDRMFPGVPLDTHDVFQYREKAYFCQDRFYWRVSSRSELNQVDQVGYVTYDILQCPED

Stromelysin-1, sequence (P08254 whole entry): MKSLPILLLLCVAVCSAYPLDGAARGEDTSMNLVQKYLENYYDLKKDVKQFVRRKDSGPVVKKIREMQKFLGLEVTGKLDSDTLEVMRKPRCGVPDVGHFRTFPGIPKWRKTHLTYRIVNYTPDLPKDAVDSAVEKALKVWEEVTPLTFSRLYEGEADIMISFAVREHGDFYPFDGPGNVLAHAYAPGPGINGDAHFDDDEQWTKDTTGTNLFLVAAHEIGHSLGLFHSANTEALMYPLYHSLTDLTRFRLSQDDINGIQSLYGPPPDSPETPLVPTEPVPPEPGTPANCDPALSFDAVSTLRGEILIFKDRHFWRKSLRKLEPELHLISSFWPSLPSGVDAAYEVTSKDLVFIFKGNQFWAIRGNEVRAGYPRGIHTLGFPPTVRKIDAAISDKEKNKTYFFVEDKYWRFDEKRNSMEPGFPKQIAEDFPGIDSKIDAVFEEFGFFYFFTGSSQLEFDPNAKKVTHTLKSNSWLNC
72 kDa type IV collagenase, sequence (P08253 whole entry): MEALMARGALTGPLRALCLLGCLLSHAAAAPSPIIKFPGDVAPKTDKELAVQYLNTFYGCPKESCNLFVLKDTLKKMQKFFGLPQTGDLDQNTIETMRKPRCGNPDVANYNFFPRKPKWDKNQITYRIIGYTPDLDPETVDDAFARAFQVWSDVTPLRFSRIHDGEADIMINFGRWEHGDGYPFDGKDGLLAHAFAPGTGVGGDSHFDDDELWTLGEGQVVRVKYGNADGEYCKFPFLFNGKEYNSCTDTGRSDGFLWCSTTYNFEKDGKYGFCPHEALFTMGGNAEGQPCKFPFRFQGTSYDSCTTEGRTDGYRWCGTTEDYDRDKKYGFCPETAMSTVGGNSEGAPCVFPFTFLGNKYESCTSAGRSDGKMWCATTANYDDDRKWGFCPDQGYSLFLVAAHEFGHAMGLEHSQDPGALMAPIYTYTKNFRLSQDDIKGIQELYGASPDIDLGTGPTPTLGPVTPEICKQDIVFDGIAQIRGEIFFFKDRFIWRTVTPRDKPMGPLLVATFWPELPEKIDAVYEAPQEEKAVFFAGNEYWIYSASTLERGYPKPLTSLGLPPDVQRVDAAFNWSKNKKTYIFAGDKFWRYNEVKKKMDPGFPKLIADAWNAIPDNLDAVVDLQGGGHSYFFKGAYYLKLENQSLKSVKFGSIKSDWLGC

SMILES	pIC50 (NCI-H460)	pIC50 (MCF7)	pIC50 (MDA-MB-231)	pIC50 (A549 [1])	also measured
CCOP(=O)(OCC)C(Nc1ccc(CC(=O)Oc2cc(/C=C/C(=O)c3ccc(OC)c4c3OC(C)(C)C=C4)ccc2OC)cc1)c1ccc(F)cc1 (centres undefined)	6.30	6.25	6.16	6.41	–
CC(=O)O[C@H]1C(=O)[C@@]2(C)[C@H]([C@H](OC(=O)c3ccccc3)[C@]3(O)C[C@H](OC(=O)[C@H](O)[C@@H](NC(=O)c4ccccc4)c4ccccc4)C(C)=C1C3(C)C)[C@]1(OC(C)=O)CO[C@@H]1C[C@@H]2O [PACLITAXEL]	6.81	6.91	6.68	6.96	pIC50 [2]: 7.02; selectivity ratio [3]: 0.87; pIC50 [4]: 6.94; selectivity ratio [5]: 0.93
CCOP(=O)(OCC)C(Nc1ccc(CC(=O)Oc2cc(/C=C/C(=O)c3ccc(OC)c4c3OC(C)(C)C=C4)ccc2OC)cc1)c1ccc([N+](=O)[O-])cc1 (centres undefined)	6.33	6.26	6.19	6.43	–
CCOP(=O)(OCC)C(Nc1ccc(CC(=O)Oc2cc(/C=C/C(=O)c3cc(OC)c(OC)c(OC)c3)ccc2OC)cc1)c1ccc(OC)c(OC)c1 (centres undefined)	6.13	6.09	6.05	6.17	–
CCOP(=O)(OCC)C(Nc1ccc(CC(=O)Oc2cc(/C=C/C(=O)c3ccc(OC)c4c3OC(C)(C)C=C4)ccc2OC)cc1)c1ccc(Br)cc1 (centres undefined)	6.11	6.08	6.02	6.13	–
CCOP(=O)(OCC)C(Nc1ccc(CC(=O)Oc2cc(/C=C/C(=O)c3cc(OC)c(OC)c(OC)c3)ccc2OC)cc1)c1ccccc1 (centres undefined)	6.15	6.08	6.03	6.20	–
CCOP(=O)(OCC)C(Nc1ccc(CC(=O)Oc2cc(/C=C/C(=O)c3ccc(OC)c4c3OC(C)(C)C=C4)ccc2OC)cc1)c1cccc(F)c1 (centres undefined)	6.43	6.37	6.26	6.54	–
CCOP(=O)(OCC)C(Nc1ccc(CC(=O)Oc2cc(/C=C/C(=O)c3cc(OC)c(OC)c(OC)c3)ccc2OC)cc1)c1ccc([N+](=O)[O-])cc1 (centres undefined)	6.37	6.29	6.24	6.48	–
CCOP(=O)(OCC)C(Nc1ccc(CC(=O)Oc2cc(/C=C/C(=O)c3cc(OC)c(OC)c(OC)c3)ccc2OC)cc1)c1cc(OC)c(OC)c(OC)c1 (centres undefined)	6.08	6.04	6.02	6.15	–
COc1ccc(/C=C/C(=O)c2cc(OC)c(OC)c(OC)c2)cc1O	6.27	6.14	6.09	6.34	pIC50 [2]: 5.96; selectivity ratio [3]: 2.4; pIC50 [4]: 6.01; selectivity ratio [5]: 1.34; Activity (Tubulin (Homo sapiens) [6]): Active; Activity (Tubulin (Homo sapiens) [7]): Active; Activity (A549 [8]): 45.16%; viability at 0.5 µM (A549 [9]): 69.5%; Activity (A549 [10]): 24.49%; Activity (A549 [11]): 5.23%; Activity (A549 [12]): 0.84%; Activity (A549 [13]): 16.56%; Activity (A549 [14]): 69.1%; Activity (A549 [15]): 14.34%; Activity (A549 [16]): 40.88%; Activity (A549 [17]): 54.64%; inhibition in vivo at 20 mg/kg (A549 [18]): 64.7%
Cc1ccc2nc(-c3cccc(NC(=O)CCc4ccccc4)c3)[nH]c2c1	–	–	–	–	pIC50 [19]: 4.44; pIC50 (Stromelysin-1): 4.33; pIC50 [20]: 4.55
CCOP(=O)(OCC)C(Nc1ccc(CC(=O)Oc2cc(/C=C/C(=O)c3ccc(OC)c4c3OC(C)(C)C=C4)ccc2OC)cc1)c1ccc(Cl)cc1 (centres undefined)	6.12	6.09	6.01	6.15	–
CCOP(=O)(OCC)C(Nc1ccc(CC(=O)Oc2cc(/C=C/C(=O)c3ccc(OC)c4c3OC(C)(C)C=C4)ccc2OC)cc1)c1ccc(C)cc1 (centres undefined)	6.25	6.12	6.10	6.32	–
CCOP(=O)(OCC)C(Nc1ccc(CC(=O)Oc2cc(/C=C/C(=O)c3ccc(OC)c4c3OC(C)(C)C=C4)ccc2OC)cc1)c1ccccc1 (centres undefined)	6.16	6.10	6.05	6.23	–
CCOP(=O)(OCC)C(Nc1ccc(CC(=O)Oc2cc(/C=C/C(=O)c3cc(OC)c(OC)c(OC)c3)ccc2OC)cc1)c1cccc(C)c1 (centres undefined)	6.41	6.38	6.24	6.51	–
CCOP(=O)(OCC)C(Nc1ccc(CC(=O)Oc2cc(/C=C/C(=O)c3cc(OC)c(OC)c(OC)c3)ccc2OC)cc1)c1ccc(OC)cc1 (centres undefined)	6.18	6.12	6.08	6.26	–
COc1ccc(/C=C/C(=O)c2ccc(OC)c3c2OC(C)(C)C=C3)cc1O	5.97	5.94	5.98	5.91	–
CCOP(=O)(OCC)C(Nc1ccc(CC(=O)Oc2cc(/C=C/C(=O)c3ccc(OC)c4c3OC(C)(C)C=C4)ccc2OC)cc1)c1cccc([N+](=O)[O-])c1 (centres undefined)	6.52	6.48	6.34	6.69	–
CCOP(=O)(OCC)C(Nc1ccc(CC(=O)Oc2cc(/C=C/C(=O)c3cc(OC)c(OC)c(OC)c3)ccc2OC)cc1)c1cccc(Cl)c1 (centres undefined)	6.07	6.09	6.05	6.19	–
COc1cccc2c1C(=O)c1c(O)c3c(c(O)c1C2=O)C[C@@](O)(C(=O)CO)C[C@@H]3O[C@H]1C[C@H](N)[C@H](O)[C@H](C)O1 [DOXORUBICIN]	–	–	–	–	pIC50 [2]: 5.88; pIC50 [4]: 6.01
CCOP(=O)(OCC)C(Nc1ccc(CC(=O)Oc2cc(/C=C/C(=O)c3ccc(OC)c4c3OC(C)(C)C=C4)ccc2OC)cc1)c1cccc(Cl)c1 (centres undefined)	6.11	6.14	6.03	6.18	–
CCOP(=O)(OCC)C(Nc1ccc(CC(=O)Oc2cc(/C=C/C(=O)c3cc(OC)c(OC)c(OC)c3)ccc2OC)cc1)c1cccc(F)c1 (centres undefined)	6.57	6.45	6.31	6.60	–
COc1ccc(/C=C/C(=O)c2ccc(OC)c3c2OC(C)(C)C=C3)cc1 [MILLEPACHINE]	5.10	5.25	5.37	5.23	–
CCOP(=O)(OCC)C(Nc1ccc(CC(=O)Oc2cc(/C=C/C(=O)c3cc(OC)c(OC)c(OC)c3)ccc2OC)cc1)c1cccc(OC)c1 (centres undefined)	6.33	6.18	6.14	6.42	–
CCOP(=O)(OCC)C(Nc1ccc(CC(=O)Oc2cc(/C=C/C(=O)c3cc(OC)c(OC)c(OC)c3)ccc2OC)cc1)c1ccc(Br)cc1 (centres undefined)	6.12	6.06	6.03	6.22	–
CCOP(=O)(OCC)C(Nc1ccc(CC(=O)Oc2cc(/C=C/C(=O)c3ccc(OC)c4c3OC(C)(C)C=C4)ccc2OC)cc1)c1ccc(OC)c(OC)c1 (centres undefined)	6.14	6.09	6.03	6.22	–
CCOP(=O)(OCC)C(Nc1ccc(CC(=O)Oc2cc(/C=C/C(=O)c3ccc(OC)c4c3OC(C)(C)C=C4)ccc2OC)cc1)c1cc(OC)c(OC)c(OC)c1 (centres undefined)	6.08	6.04	6.00	6.11	–
CCOP(=O)(OCC)C(Nc1ccc(CC(=O)Oc2cc(/C=C/C(=O)c3ccc(OC)c4c3OC(C)(C)C=C4)ccc2OC)cc1)c1ccc(OC)cc1 (centres undefined)	6.18	6.10	6.03	6.25	–
CCOP(=O)(OCC)C(Nc1ccc(CC(=O)Oc2cc(/C=C/C(=O)c3cc(OC)c(OC)c(OC)c3)ccc2OC)cc1)c1ccc(C)cc1 (centres undefined)	6.34	6.27	6.18	6.40	–
